Results taken from patent US11932634B2 (Gilead Sciences, Inc., priority 2021, dated 2024).

Columns and labels:
human DGKα = target: T1, human DGKα (Homo sapiens, UniProt P23743); assay: DGKα Biochemical Activity Assay (ADP-Glo);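 note: recombinant enzyme converting diacylglycerol in lipid micelles with ATP, ADP formed detected by luminescence, IC50 from a four-parameter nonlinear fit, geometric mean across experiments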
T1 construct: purchased Carna Biosciences'; inferred from the same paragraph's 'obtained from Carna Biosciences')
T1 sequence (P23743 whole entry): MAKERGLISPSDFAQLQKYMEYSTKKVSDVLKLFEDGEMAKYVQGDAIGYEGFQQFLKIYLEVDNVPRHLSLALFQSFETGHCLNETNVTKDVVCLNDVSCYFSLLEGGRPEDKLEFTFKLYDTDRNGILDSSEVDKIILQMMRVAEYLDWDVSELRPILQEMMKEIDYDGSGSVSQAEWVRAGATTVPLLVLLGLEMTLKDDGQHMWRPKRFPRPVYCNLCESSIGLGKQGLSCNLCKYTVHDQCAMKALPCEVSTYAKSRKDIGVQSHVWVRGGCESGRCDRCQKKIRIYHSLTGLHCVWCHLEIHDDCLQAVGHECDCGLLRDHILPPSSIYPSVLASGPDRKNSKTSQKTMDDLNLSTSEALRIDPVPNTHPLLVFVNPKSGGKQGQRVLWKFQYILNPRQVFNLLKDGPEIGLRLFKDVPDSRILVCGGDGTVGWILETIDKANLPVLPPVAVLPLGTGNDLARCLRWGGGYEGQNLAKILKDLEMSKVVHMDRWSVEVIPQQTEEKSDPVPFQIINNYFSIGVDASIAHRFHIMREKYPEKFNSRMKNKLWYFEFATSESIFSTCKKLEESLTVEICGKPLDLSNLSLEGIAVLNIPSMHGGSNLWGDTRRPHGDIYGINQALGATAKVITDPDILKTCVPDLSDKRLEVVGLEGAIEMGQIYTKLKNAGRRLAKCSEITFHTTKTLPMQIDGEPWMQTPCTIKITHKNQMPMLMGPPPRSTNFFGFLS
Text: Alternatively, the enzymatic activity of human DGKα was monitored in a biochemical assay in the presence or absence of compounds and using micelles containing 18:1 Diacylglycerol (DAG), 16:0-18:1 PS (POPS) and Octylglucoside as substrate. DGKα activity led to conversion of DAG and ATP to Phosphatidic Acid (PA) and ADP. Levels of ADP were monitored by bioluminescence using the ADP-Glo Kinase Assay (Promega) and were indicative of DGKα activity.
Ten nanoliters of test compound dissolved in DMSO at various concentrations were dispensed into a 384-well low volume nonbinding service white plates (Corning #3824) using a Labcyte Echo instrument. Recombinant DGKα Biosciences) in assay buffer (5 μL in 50 mM MOPS [3-(N-morpholino) propanesulfonic acid], pH 7.2; 0.0025% Triton X-100; 1 mM dithiothreitol; 5 mM MgCl2, 200 μM ATP) was added to the compound-containing plate and was incubated for 15 minutes at 25° C. A substrate solution (5 μL in 1.7 mM 1,2-dioleoyl-sn-glycerol [18:1 DAG], 13.5 mM 1-palmitoyl-2-oleoyl-sn-glycero-3-phospho-L-serine [16:0-18:1 PS](POPS), 2 μM CaCl2), 100 mM Octylglucoside (OG), 1 mM DTT) (obtained from Carna Biosciences) diluted in DGK ALPHA assay buffer was then added to start the reaction. Final concentrations were 1 nM DGKα, 100 μM ATP, 1 μM calcium chloride, 0.85 mM 1,2-dioleoyl-sn-glycerol (18:1 DAG), 6.75 mM 1-palmitoyl-2-oleoyl-sn-glycero-3-phospho-L-serine (16:0-18:1 PS) (POPS), 1 μM CaCl2), 50 mM Octylglucoside (OG) and 5 mM MgCl2. The reaction mixture was incubated at 25° C. for 1 hour. ADP-Glo Reagent (10 μL, 10 mM Mg added) provided by the kit was added to each well and incubated at 25° C. for 40 minutes. Then, 20 μL of Kinase Detection Reagent was added and incubated at 25° C. for 40 minutes. Luciferase activity of each well was measured via luminescence on an Envision plate reader (PerkinElmer).
Least squares curve fittings were performed using a four-parameter variable slope nonlinear regression model. […] IC50 values from multiple experiments were averaged by geometric mean and the standard deviation was calculated.

[1] = test system: Jurkat NFκB-luciferase cells; assay: Jurkat NFκB-Luciferase Assay; format: cell-based; settings: Homo sapiens; Jurkat NFκB-luciferase cells activated with anti-CD3 antibody (OKT3), 2.5 hrs at 37° C., One-Glo Ex; geometric mean; read-out: DGK NFKb Luciferase EC50;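 note: bioluminescence read-out normalized to DMSO basal activation and to maximum enhancement at 1 µM compound, rising signal indicating stronger T-cell activation through DGKα inhibition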
Experimental: The activity of compounds was tested in a cell based NFκB reporter assay. Jurkat cells that are stably expressing a luciferase reporter construct under the transcriptional control of a NFκB reporter element were activated with an anti-CD3 antibody and luciferase levels were measured with a bioluminescence readout.
The day after, the excess antibody was washed out five times with 100 ul/well of assay medium (RPMI supplemented with 10% fetal bovine serum) using a Biotek EL406 instrument and leaving 20 µl of residual volume in each well. Jurkat NFκB-luciferase cells (Promega #) were harvested and diluted to 1 million cells/ml in assay medium. Sixty nanoliters of test compound dissolved in DMSO at various concentrations were dispensed into 384-well v-bottom polypropylene plates (Greiner) using a Labcyte Echo instrument. Thirty microliters of medium containing the Jurkat NFκB-luciferase cells were then dispensed using a Biotek MicroFlo instrument in each well of the compound-containing plate. The medium/cell/compound mixture was mixed with a Bravo instrument and 20 ul/well of the mixture was transferred to the anti-CD3-coated plate. The assay mixture was then incubated for 2.5 hrs at 37° C. followed by equilibration at 25° C. for 30 min. Forty microliters of One-Glo Ex (Promega) was then added to the assay mixture and luciferase activity was read on a Envision plate reader 7 minutes later.
Bioluminescence data were normalized based on maximum enhancement (1 micromolar of compound) and on basal activation (DMSO) controls. Least squares curve fittings were performed using a four-parameter variable slope nonlinear regression model. […] EC50 values from multiple experiments were averaged by geometric mean and the standard deviation was calculated.

Compound	IC50 (human DGKα)	EC50 [1]
CC(C)(C#N)C#Cc1cc(F)cc(N(CC(F)F)c2nc(=O)[nH]c3ccc(F)c(F)c23)c1 [Example 69, 4-[3-[2,2-difluoroethyl-(5,6-difluoro-2-oxo-1H-quinazolin-4-yl)amino]-5-fluoro-phenyl]-2,2-dimethyl-but-3-ynenitrile]	26.7 nM	1.8 nM
CC(C)(O)C#Cc1cccc(N(CC(F)F)c2nc(=O)[nH]c3cccc(F)c23)c1F [Example 59, 4-[N-(2,2-difluoroethyl)-2-fluoro-3-(3-hydroxy-3-methyl-but-1-ynyl)anilino]-5-fluoro-M-quinazolin-2-one]	7.63 nM	14.5 nM
CN(c1cc(F)cc(C#CC2(C(F)(F)F)CC2)c1)c1nc(=O)[nH]c2cc(Cl)ccc12 [Example 14, 7-chloro-4-[3-fluoro-N-methyl-5-[2-[1-(trifluoromethyl)cyclopropyl]ethynyl]anilino]-1H-quinazolin-2-one]	138 nM	0.788 nM
[2H]C([2H])([2H])n1c(=O)nc(N2CCCc3c2ccnc3C#CC(C)(C)C#N)c2c(F)c(F)ccc21 [Example 140, 4-[1-[5,6-difluoro-2-oxo-1-(trideuteriomethyl)quinazolin-4-yl]-3,4-dihydro-2H-1,6-naphthyridin-5-yl]-2,2-dimethyl-but-3-ynenitrile]	15.3 nM	7.54 nM
[2H]C([2H])([2H])n1c(=O)nc(N2CCOCc3c(C#CC4(C(F)(F)F)CCN(C5COC5)C4)cccc32)c2c(F)cccc21 (stereo not drawn) [Example 171, 5-fluoro-4-[6-[2-[1-(oxetan-3-yl)-3-(trifluoromethyl)pyrrolidin-3-yl]ethynyl]-3,5-dihydro-2H-4,1-benzoxazepin-1-yl]-1-(trideuteriomethyl)quinazolin-2-one]	11.4 nM	4.99 nM
CN(c1cccc(-c2ccc(N3CCCS3(=O)=O)cc2)c1)c1nc(=O)[nH]c2cc(Cl)ccc12 [Example 9, 7-chloro-4-[3-[4-(1,1-dioxo-1,2-thiazolidin-2-yl)phenyl]-N-methyl-anilino]-1H-quinazolin-2-one]	33.3 nM	5.03 nM
CN(c1cccc(-c2ccc(C3CC3)cc2)c1)c1nc(=O)[nH]c2cc(Cl)ccc12 [Example 1, 7-chloro-4-[3-(4-cyclopropylphenyl)-N-methyl-anilino]-1H-quinazolin-2-one]	166 nM	1.36 nM
CC(C)(O)C#Cc1nccc(N(CC(F)F)c2nc(=O)[nH]c3cccc(F)c23)c1F [Example 113, 4-[2,2-difluoroethyl-[3-fluoro-2-(3-hydroxy-3-methyl-but-1-ynyl)-4-pyridyl]amino]-5-fluoro-1H-quinazolin-2-one]	10.4 nM	66.3 nM
[2H]C([2H])([2H])n1c(=O)nc(N(CC(F)F)c2ccnc(C#CC3(C)CC3)c2)c2c(F)cccc21 [Example 138, 4-[2,2-difluoroethyl-[2-[2-(1-methylcyclopropyl)ethynyl]-4-pyridyl]amino]-5-fluoro-1-(trideuteriomethyl)quinazolin-2-one]	6.83 nM	4.59 nM
CC(F)(F)C1(C#Cc2cccc3c2COCCN3c2nc(=O)[nH]c3c(F)ccc(F)c23)CC1 [Example 147]	51.9 nM	2.84 nM
CN(c1cncc(C#CC2(C(F)(F)F)CC2)n1)c1nc(=O)n(C)c2cc(Cl)ccc12 [Example 12, 7-chloro-1-methyl-4-[methyl-[6-[2-[1-(trifluoromethyl)cyclopropyl]ethynyl]pyrazin-2-yl]amino]quinazolin-2-one]	2.91 nM	1.04 nM
[2H]C([2H])([2H])n1c(=O)nc(N(CC(F)F)c2cc(F)cc(C#CC(C)(C)O)c2)c2c(F)cccc21 [Example 38, 4-[N-(2,2-difluoroethyl)-3-fluoro-5-(3-hydroxy-3-methyl-but-1-ynyl)anilino]-5-fluoro-1-(trideuteriomethyl)quinazolin-2-one]	16 nM	11.1 nM
